According to PubChem BioAssay (NCI):
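Growth conditions: 96-well plates. Treatment: test compound, 48 hours, 5 concentrations. Analysis: linear interpolation between bracketing concentrations; unreached endpoints set to highest concentration. The concentration for 50% growth inhibition is given as GI50. Definition used: TGI = concentration required for complete inhibition of growth.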

What was measured:
Assay in all cases: growth of human tumour cells (NCI), 48 h
SK-MEL-2 melanoma = tested on: SK-MEL-2 melanoma
U251 CNS = tested on: U251 CNS
SF-295 CNS = tested on: SF-295 CNS
MDA-MB-435 = tested on: MDA-MB-435
KM12 colon = tested on: KM12 colon
HT29 colon = tested on: HT29 colon
NCI-H460 lung = tested on: NCI-H460 lung
NCI-H522 lung = tested on: NCI-H522 lung
OVCAR-4 ovarian = tested on: OVCAR-4 ovarian
M14 melanoma = tested on: M14 melanoma

SMILES | TGI (SK-MEL-2 melanoma) | TGI (U251 CNS) | TGI (SF-295 CNS) | TGI (MDA-MB-435) | TGI (KM12 colon) | TGI (HT29 colon) | TGI (NCI-H460 lung) | TGI (NCI-H522 lung) | TGI (OVCAR-4 ovarian) | TGI (M14 melanoma) | GI50 (SK-MEL-2 melanoma) | GI50 (U251 CNS) | GI50 (SF-295 CNS) | GI50 (MDA-MB-435) | GI50 (KM12 colon) | GI50 (HT29 colon) | GI50 (NCI-H460 lung) | GI50 (NCI-H522 lung) | GI50 (OVCAR-4 ovarian) | GI50 (M14 melanoma)
N=C1N(S(=O)(=O)c2ccccc2)[C@@H](Cc2ccccc2)[C@H](c2ccccc2)C1(c1ccccc1)c1ccccc1 | > 100 µM | > 100 µM | > 100 µM | > 100 µM | > 100 µM | > 100 µM | > 100 µM | > 100 µM | > 100 µM | > 100 µM |  |  |  |  |  |  |  |  |  | 
C=C(CCC(C)C1CCC2C3=C(C(=O)CC21C)C1(C)CCC(=O)[C@@H](C)C1CC3=O)C(C)C(=O)O (stereo not given in full) | > 100 µM | > 100 µM | > 100 µM | > 100 µM | > 100 µM | > 100 µM | > 100 µM | > 100 µM | > 100 µM | > 100 µM |  |  |  |  |  |  |  |  |  | 
C/C(=C\c1ccccn1)c1ccccn1 | > 100 µM | > 100 µM | > 100 µM | > 100 µM | > 100 µM | > 100 µM | > 100 µM | > 100 µM | > 100 µM | > 100 µM |  |  |  |  |  |  |  |  |  | 
CCOP(=O)(OCC)C(Nc1cccc(F)c1)c1ccccc1 (stereo not given) | > 100 µM | > 100 µM | > 100 µM | > 100 µM | > 100 µM | > 100 µM | > 100 µM | > 100 µM | > 100 µM | > 100 µM |  |  |  |  |  |  |  |  |  | 
O=[N+]([O-])c1c(Br)cc(Br)c2c1Nc1c(ccc(Cl)c1Cl)S2 | 39.2 µM | 35.1 µM | 39.1 µM | 31.5 µM | 20.5 µM | 26 µM | 41.4 µM | 20.5 µM | 28.7 µM | 23.6 µM |  |  |  |  |  |  |  |  |  | 
C/C=C\C(CC(=O)NCCc1cn(C(=O)OCc2ccccc2)c2ccccc12)CC(=O)OC (stereo not given) | > 100 µM | > 100 µM | > 100 µM | > 100 µM | > 100 µM | > 100 µM | > 100 µM | > 100 µM | > 100 µM | > 100 µM |  |  |  |  |  |  |  |  |  | 
CCOC(=O)c1c(CN2CCNCC2)nc2ccccc2c1-c1ccccc1 | 29.3 µM | 27.5 µM | 29 µM | 28.5 µM | 31.2 µM | 17.8 µM | 28.4 µM | 29 µM | 33.1 µM | 28.2 µM |  |  |  |  |  |  |  |  |  | 
CO/C(=N\N=C\c1cccc(Cl)c1)c1ccncc1 | > 10 µM | > 10 µM | > 10 µM | > 10 µM | > 10 µM | > 10 µM | > 10 µM | > 10 µM | > 10 µM | > 10 µM |  |  |  |  |  |  |  |  |  | 
NC(=S)N/N=C\c1ccc(OCc2cccc(COc3ccc(/C=N/NC(N)=S)cc3)n2)cc1 | 38.1 µM | > 100 µM | > 100 µM | > 100 µM | > 100 µM | > 100 µM | > 100 µM | > 100 µM | > 100 µM | > 100 µM |  |  |  |  |  |  |  |  |  | 
O=[N+]([O-])c1ccc(S[C@@H]2[C@H]3c4c(-c5ccccc5)[nH]c(-c5ccccc5)c4[C@@H]2C[C@H]3Cl)cc1 | 70.9 µM | > 100 µM | > 100 µM | 27.8 µM | 12.3 µM | > 100 µM | 12.9 µM | 14.1 µM | 5.4 µM | > 100 µM |  |  |  |  |  |  |  |  |  | 
COc1cc(/C=C/C(=O)c2c(=O)o[nH][n+]2-c2ccccc2)ccc1[O-] | 6.06 µM | 11 µM | 31.6 µM | 9.24 µM | 8.77 µM | 6.64 µM | 4.34 µM | 4.29 µM | 7.17 µM | 9.64 µM |  |  |  |  |  |  |  |  |  | 
Cc1cc(/C=C\c2ccc3ccccc3[n+]2C)c(O)c2ncccc12 | > 100 µM | > 100 µM | 1.44 µM | 0.523 µM | 1.34 µM | 21.7 µM | 1.82 µM | 5.02 µM | 1.73 µM | 1.11 µM | 3.03 µM | 0.537 µM | 0.0827 µM | 0.0875 µM | 0.182 µM | 0.218 µM | 0.224 µM | 1.05 µM | 0.323 µM | 0.167 µM
COc1nc2c(c(=O)n1C)N[C@H]1[C@H](OC(C)=O)[C@@H](OC(C)=O)CO[C@H]1N2 | > 100 µM | > 100 µM | > 100 µM | > 100 µM | > 100 µM | > 100 µM | > 100 µM | > 100 µM | > 100 µM | > 100 µM |  |  |  |  |  |  |  |  |  | 
CC(=O)O[C@@H]1C[C@@]23C[C@@]24CC[C@H](OC2OCC(O)C(O)C2O)C(C)(C)[C@@H]4CC=C3[C@]2(C)C[C@@H]3OC4(C[C@@H](C)[C@@H]3[C@@]12C)OC(O)[C@@]1(C)O[C@@H]41 (stereo not given in full) | 40.7 µM | > 100 µM | 80.6 µM | > 100 µM | > 100 µM | > 100 µM | 66.9 µM | 89.4 µM | > 100 µM | > 100 µM |  |  |  |  |  |  |  |  |  | 
N#Cc1nc(CCCCCN2C(=O)c3ccccc3C2=O)oc1N | > 100 µM | > 100 µM | > 100 µM | > 100 µM | > 100 µM | > 100 µM | > 100 µM | 75.2 µM | > 100 µM | > 100 µM |  |  |  |  |  |  |  |  |  | 
CCOC(=O)C(=[N+]=[N-])C(=O)Nc1nn2nnnc2c2ccccc12 | > 100 µM | > 100 µM | > 100 µM | > 100 µM | > 100 µM | > 100 µM | > 100 µM | > 100 µM | > 100 µM | > 100 µM |  |  |  |  |  |  |  |  |  | 
